Results as given in patent US20100190860A1, “METHODS FOR SELECTIVELY ENHANCING ANTINOCICEPTIVE POTENCY OF LOCAL ANESTHETICS” (The Brigham and Women's Hospital, Inc., priority 2009, published 2010).
Entries after “also recorded” stand apart in the source; their conditions may differ. Structures can show the parent of a compound that is named as a salt. Where two headings read alike, the source gives them in different places.

Legend:
sciatic nerve [1] = assay: Rat sciatic nerve block: nociception (nocifensive withdrawal reflex and vocalization to skin pinch); type: in vivo; conditions: for kind of blockade (nociceptive vs motor), in words: local anesthetic with injection of capsaicin 0.05% 10 minutes later; for effect of vehicle on block, in words: vehicle (10% ethanol, 10% Tween 80, 80% saline) injected 10 min after the drug; for dose-response of block, in words: 0.0625, 0.125 and 0.25%, injection followed by capsaicin
sciatic nerve [2] = assay: Rat sciatic nerve block: motor function (extensor postural thrust); type: in vivo
Procedure: The rats were assigned to treatments via block randomization with a block size of 8. All rats were anesthetized by inhalation of 1-2% of sevoflurane (Abbott Laboratory, North Chicago, Ill.) until no withdrawal to pinch of the leg occurred (by forceps). […] All drugs were given alone or co-administered with capsaicin at 0.05%/1.6 mM. Co-administration of capsaicin was performed either 10 minutes after the first drug or simultaneously (e.g., mixed with the local anesthetic). The vehicle control group received local anesthetic followed by injection of vehicle 10 minutes later. Capsaicin was also injected alone as was normal saline. Each drug was injected was injected in a volume of 0.2 mL. The experimenter was blinded to the drug used, but was not blinded to the administration of a second drug 10 minutes later which was either capsaicin or vehicle alone.
The effects of local anesthetics and capsaicin on motor function and nociception were evaluated. Rats were examined before injection for baseline functions, and at 10, 20, 30, 60, and 90 minutes and 2, 3, 6, 12, 24, and 36 hours after drug administration. Motor function was assayed by holding the rat upright with the control hind limb extended so that the distal metatarsus and toes of the target leg supported the animal's weight; the extensor postural thrust was recorded as the force (in grams) applied by each of the two hind limbs to a digital platform balance (Ohaus Lopro; Fisher Scientific, Florham Park, N.J.). The reduction in this force, representing reduced extensor-muscle contraction caused by motor block, was calculated as a percentage of the control force (pre-injection control value=145 to 165 g). The percent reduction in force was assigned a ‘range’ score: 0=no block (or baseline); 1=minimal block, force between the pre-injection control value of 100% and 50%; 2=moderate block, force between 50% of the pre-injection control value and 20 g (˜20 g represented the approximate weight of the flaccid limb); 3=complete block, force 20 g or less.
For both nociceptive and motor assessment, the examination was repeated three times at each time point and reported as an average of the three exams.

skin = assay: Skin appearance / irritation after transdermal patch; type: in vivo, rat
Source text: (§1) It was hypothesized that the combined application of amitriptyline and capsaicin as a transdermal patch will produce prolonged cutaneous analgesia compared to amitriptyline alone. Male Sprague-Dawley rats (weights 250-300 g) were assigned to five treatment groups (n=6-8). Transdermal patches containing amitriptyline with different concentrations of capsaicin were applied to the rats' shaved backs: 2.5% amitriptyline alone (control group) and in combinations with 0.05%, 0.15%, 1, and 8% capsaicin for 3 hours. Behavioral testing for cutaneous nociception was conducted before and after patch removal, using the cutaneous trunci muscle reflex (CTMR). In addition, skin appearance was assessed to determine irritation by the formulation.

[3] = system: cutaneous trunci muscle reflex; type: in vivo, rat
Source text: as §1

sciatic nerve [4] = conditions: followed by capsaicin; cited from earlier work
[5] = 0.25% drug + 0.05% capsaicin (10 min apart)
[6] = 0.25% drug + 0.05% capsaicin (mixed)
[7] = 0.25% drug + vehicle (10 min apart)
[8] = 0.0625% drug + 0.05% capsaicin (10 min apart)
[9] = 0.0625% drug alone, 0.2 mL at sciatic notch
[10] = 0.125% drug + 0.05% capsaicin (10 min apart)
[11] = 0.125% drug + 0.05% capsaicin (mixed)
[12] = 0.125% drug + vehicle (10 min apart)
[13] = 2.5% amitriptyline patch alone, applied 3 hours
[14] = 0.125% solution administered alone
[15] = 2% drug + 0.05% capsaicin (10 min apart)
[16] = 2% drug + 0.05% capsaicin (mixed)
[17] = 2% drug + vehicle (10 min apart)

SMILES	Complete recovery time, Nociception, Mean (sciatic nerve [1]; [5])	Complete recovery time, Nociception, Mean (sciatic nerve [1]; 0.25% drug alone)	kind of blockade (nociceptive vs motor), in words (sciatic nerve [1])	effect of vehicle on block, in words (sciatic nerve [1])	Complete recovery time, Motor, Mean (sciatic nerve [2]; [5])	Complete recovery time, Motor, Mean (sciatic nerve [2]; 0.25% drug alone)	Complete recovery time, Nociception, Mean (sciatic nerve [1]; [8])	Complete recovery time, Nociception, Mean (sciatic nerve [1]; [9])	dose-response of block, in words (sciatic nerve [1])	Complete recovery time, Nociception, Mean (sciatic nerve [1]; [10])	Complete recovery time, Nociception, Mean (sciatic nerve [1]; [11])	Complete recovery time, Nociception, Mean (sciatic nerve [1]; [12])	Complete recovery time, Nociception, Mean (sciatic nerve [1]; 0.125% drug alone)	kind of blockade (nociceptive vs motor), in words (sciatic nerve [1]; hydrochloride)	Complete recovery time, Motor, Mean (sciatic nerve [2]; [8])	Complete recovery time, Motor, Mean (sciatic nerve [2]; [9])	Complete recovery time, Motor, Mean (sciatic nerve [2]; [10])	Complete recovery time, Motor, Mean (sciatic nerve [2]; [11])	Complete recovery time, Motor, Mean (sciatic nerve [2]; [12])	Complete recovery time, Motor, Mean (sciatic nerve [2]; 0.125% drug alone)	other results
CCCCN1CCCCC1C(=O)Nc1c(C)cccc1C (stereo not shown) [Bupivacaine, bupivacaine hydrochloride]	23.14 h	2.50 h	predominantly nociceptive-specific blockade	intensification of both motor and nociceptive block	2.31 h	2.31 h	–	–	–	–	–	–	–	–	–	–	–	–	–	–	Complete recovery time, Nociception, Mean (sciatic nerve [1]; [6]): 1.63 h; Complete recovery time, Nociception, Mean (sciatic nerve [1]; [7]): 4.75 h; nociceptive vs motor blockade, in words (sciatic nerve [1]; 0.25%, followed by capsaicin or vehicle 10 minutes later): significantly increased the nociceptive blockade over motor blockade; Complete recovery time, Motor, Mean (sciatic nerve [2]; [6]): 1.56 h; Complete recovery time, Motor, Mean (sciatic nerve [2]; [7]): 2.87 h; effect on motor block, in words (sciatic nerve [2]; capsaicin given simultaneously with the local anesthetic): decreased the absolute duration of motor block
CN(C)CCC=C1c2ccccc2CCc2ccccc21 [Amitriptyline, amitriptyline hydrochloride]	33.37 h	11.25 h	–	–	2.31 h	9.13 h	2.88 h	0.25 h	dose-dependent and predominantly nociceptive block	17.25 h	2.69 h	2.13 h	4.56 h	predominantly nociceptive-specific blockade; also recorded: large differential block	1.38 h	0.44 h	3.25 h	0.44 h	2.62 h	3.44 h	skin effects, in words (skin; 2.5% amitriptyline patch alone): causes toxic effects in skin; skin effects, in words (skin; amitriptyline 2.5% with capsaicin 8% patch): no adverse skin reactions; effect on motor block, in words (sciatic nerve [2]; 0.25%, followed by capsaicin): motor block decreased; effect on motor block, in words (sciatic nerve [2]; capsaicin given simultaneously with the local anesthetic, hydrochloride): significantly decreased the motor blockade; also recorded: decreased the absolute duration of motor block; complete block to pinprick (duration) [3, 13]: 4.5 h; time to full recovery [3, 13]: 96 h; complete block to pinprick (duration) ([3]; 3 h): 6 to 9 h; time to full recovery ([3]; 3 h): 216 h
COc1cc(CNC(=O)CCCCC=CC(C)C)ccc1O [capsaicin, 8-methyl-N-vanillyl-6-nonenamide]	–	–	–	–	–	–	–	–	–	–	–	–	–	–	–	–	–	–	–	–	motor and nociceptive block, in words (sciatic nerve [1]; injected alone, 0.05%, 0.2 mL): no detectable block
C[N+](C)(C)CCC=C1c2ccccc2CCc2ccccc21 [N-Methyl Amitriptyline, N-methyl amitriptyline]	33.00 h	3.63 h	predominantly nociceptive-specific blockade	–	1.81 h	1.44 h	0.13 h	0.00 h	dose-dependent and predominantly nociceptive block	11.63 h	10.87 h	0.81 h	0.67 h	–	0.06 h	0.12 h	0.04 h	0.12 h	0.38 h	0.31 h	kind of blockade, in words (sciatic nerve [1]; 0.125% + capsaicin 0.05%, 10 minutes after or injected simultaneously): very prolonged sensory-selective block; duration of nociceptive blockade (sciatic nerve [1]; [14]): < 1 h; duration of motor blockade (sciatic nerve [2]; [14]): < 1 h
CC[N+](CC)(CC)CC(=O)Nc1c(C)cccc1C [QX-314]	–	–	–	–	–	–	–	–	–	–	–	–	–	–	–	–	–	–	–	–	kind of sciatic nerve block, in words (sciatic nerve [4]): nociceptor-selective sciatic nerve block
CCN(CC)CC(=O)Nc1c(C)cccc1C [Lidocaine, lidocaine hydrochloride]	–	–	–	intensification of both motor and nociceptive block	–	–	–	–	–	–	–	–	–	smallest differential block among all drug combinations	–	–	–	–	–	–	Complete recovery time, Nociception, Mean (sciatic nerve [1]; [15]): 7.62 h; Complete recovery time, Nociception, Mean (sciatic nerve [1]; [16]): 3.00 h; Complete recovery time, Nociception, Mean (sciatic nerve [1]; [17]): 2.12 h; Complete recovery time, Nociception, Mean (sciatic nerve [1]; 2% drug alone): 1.25 h; motor and nociceptive block, in words (sciatic nerve [1]; 2% given alone): complete but relatively short-lasting motor and nociceptive block; kind of blockade (nociceptive vs motor), in words (sciatic nerve [1]; listed as lidocaine, hydrochloride): predominantly nociceptive-specific blockade; Complete recovery time, Motor, Mean (sciatic nerve [2]; [15]): 1.69 h; Complete recovery time, Motor, Mean (sciatic nerve [2]; [16]): 1.50 h; Complete recovery time, Motor, Mean (sciatic nerve [2]; [17]): 2.00 h; Complete recovery time, Motor, Mean (sciatic nerve [2]; 2% drug alone): 1.13 h
